The results in this text go back to ChEMBL document CHEMBL1201862, “PubChem BioAssay data set” (2004).

The source made the active and inactive calls.

Assay [1] has as its target Voltage-dependent T-type calcium channel subunit alpha-1H (Homo sapiens, UniProt O95180). Description: Cav3.2 T-type channel inhibitors, cell-based, synthetic library set 1, calcium flux (AID 493022). The format is functional.
For assay [2], the target named is T1, Runt-related transcription factor 1/Core-binding factor subunit beta (Homo sapiens, UniProt Q01196+Q13951). Description: inhibitors of RUNX1 Runt–CBFb-SMMHC binding, primary screen, biochemical, FRET, Cerulean-Runt, Venus-CBFb-SMMHC, uHTS (AID 1434).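 Also: partner is the CBFb-SMMHC leukemia fusion protein rather than wild-type CBFb.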 Format: protein assay.
For assay [3], the target named is T1, Runt-related transcription factor 1/Core-binding factor subunit beta. Description: inhibitors of RUNX1 Runt–CBFb-SMMHC binding, biochemical, TR-FRET (AID 1438). Format: protein assay.
The target of assay [4] is Luciferin 4-monooxygenase (Photinus pyralis, UniProt P08659). Description: firefly luciferase enzyme inhibitors, dose response, biochemical, luminescence (AID 1891).
Assay [5] has as its target Intestinal-type alkaline phosphatase (Mus musculus, UniProt P24822). The assay can be described thus: PubChem AID 488785. The format is functional.
Assay [6] addresses T2, Alkaline phosphatase, tissue-nonspecific isozyme (Homo sapiens, UniProt P05186).
T2 sequence (P05186 whole entry): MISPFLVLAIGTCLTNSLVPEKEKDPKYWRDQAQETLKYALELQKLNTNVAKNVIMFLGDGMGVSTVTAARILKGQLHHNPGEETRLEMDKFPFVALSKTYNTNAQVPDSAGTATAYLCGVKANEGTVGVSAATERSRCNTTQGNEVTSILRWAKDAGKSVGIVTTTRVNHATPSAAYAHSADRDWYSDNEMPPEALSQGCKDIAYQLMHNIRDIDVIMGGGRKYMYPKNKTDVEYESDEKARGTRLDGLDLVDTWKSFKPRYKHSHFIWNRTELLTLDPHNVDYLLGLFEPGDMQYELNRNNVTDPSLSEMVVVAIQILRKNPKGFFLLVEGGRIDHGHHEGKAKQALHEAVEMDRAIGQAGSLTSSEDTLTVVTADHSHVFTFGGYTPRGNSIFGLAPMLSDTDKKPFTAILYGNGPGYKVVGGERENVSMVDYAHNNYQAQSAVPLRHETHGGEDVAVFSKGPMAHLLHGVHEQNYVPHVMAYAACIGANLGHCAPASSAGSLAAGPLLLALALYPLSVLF
The assay can be described thus: TNAP enzyme inhibition by screening hits, dose response, selectivity assay for mouse IAP inhibitor project, biochemical, human TNAP, uHTS hits (AID 488906). Format: functional.

The target in assay [7] is Intestinal-type alkaline phosphatase (Homo sapiens, UniProt P09923). Description: activation of human intestinal alkaline phosphatase – biochemical, dose response (AID 488873). Format: functional.
Assay [8] can be described thus: Luminescence Cell-Based Dose Confirmation HTS to Identify Inhibitors of Platelet Dense Granule Release. [Related pubchem assays: 1663 (Primary HTS), 1678 (Summary of Project)]. The format is functional.
The target of assay [9] is T3, Heat shock factor protein 1 (Mus musculus, UniProt P38532).
T3 sequence (P38532 whole entry): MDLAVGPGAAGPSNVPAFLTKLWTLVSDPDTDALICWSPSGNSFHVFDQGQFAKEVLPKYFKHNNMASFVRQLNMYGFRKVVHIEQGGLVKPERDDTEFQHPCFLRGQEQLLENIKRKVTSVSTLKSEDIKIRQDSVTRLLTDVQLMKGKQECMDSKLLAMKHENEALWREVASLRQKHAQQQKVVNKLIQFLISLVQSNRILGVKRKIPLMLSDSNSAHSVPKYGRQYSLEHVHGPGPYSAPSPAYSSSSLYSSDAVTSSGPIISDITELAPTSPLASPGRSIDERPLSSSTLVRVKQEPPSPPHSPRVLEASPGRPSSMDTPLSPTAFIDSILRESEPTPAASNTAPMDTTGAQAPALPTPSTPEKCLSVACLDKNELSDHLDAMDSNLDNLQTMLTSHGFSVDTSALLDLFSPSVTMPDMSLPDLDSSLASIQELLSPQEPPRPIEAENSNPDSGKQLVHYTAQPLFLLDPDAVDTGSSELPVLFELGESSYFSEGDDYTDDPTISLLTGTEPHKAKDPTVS
The assay can be described thus: inhibition of MG132-induced HSE-luciferase signal, confirmation, cell-based, NIH3T3, luminescence, dose retest (AID 2382).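 Also: NIH3T3 fibroblasts with HSF1-driven luciferase reporter stressed by proteasome inhibitor MG132; luminescence from HSF1-driven luciferase expression after 8 hours of MG132 stress.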 The format is functional.

T1 sequence (Q01196 whole entry, the tested form may be a part): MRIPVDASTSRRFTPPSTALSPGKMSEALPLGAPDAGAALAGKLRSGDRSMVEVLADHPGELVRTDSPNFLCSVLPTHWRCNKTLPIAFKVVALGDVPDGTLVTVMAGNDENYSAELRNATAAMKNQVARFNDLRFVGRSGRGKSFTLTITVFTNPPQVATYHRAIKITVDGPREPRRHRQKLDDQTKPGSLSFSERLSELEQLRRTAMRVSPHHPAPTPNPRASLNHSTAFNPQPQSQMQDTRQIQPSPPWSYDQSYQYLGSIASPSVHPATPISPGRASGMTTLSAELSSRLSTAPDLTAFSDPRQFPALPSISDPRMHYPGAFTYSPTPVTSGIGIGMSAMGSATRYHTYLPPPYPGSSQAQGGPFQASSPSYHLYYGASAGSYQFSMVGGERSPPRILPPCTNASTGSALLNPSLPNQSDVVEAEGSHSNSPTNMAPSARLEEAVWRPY
T1 sequence (Q13951 whole entry, the tested form may be a part): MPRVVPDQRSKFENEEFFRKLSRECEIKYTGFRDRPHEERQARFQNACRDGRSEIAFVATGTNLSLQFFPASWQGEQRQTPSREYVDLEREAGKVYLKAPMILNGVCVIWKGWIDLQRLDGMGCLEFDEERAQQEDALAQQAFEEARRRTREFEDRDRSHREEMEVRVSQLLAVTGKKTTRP
Chain of Voltage-dependent T-type calcium channel subunit alpha-1H (O95180 whole entry, the tested form may be a part): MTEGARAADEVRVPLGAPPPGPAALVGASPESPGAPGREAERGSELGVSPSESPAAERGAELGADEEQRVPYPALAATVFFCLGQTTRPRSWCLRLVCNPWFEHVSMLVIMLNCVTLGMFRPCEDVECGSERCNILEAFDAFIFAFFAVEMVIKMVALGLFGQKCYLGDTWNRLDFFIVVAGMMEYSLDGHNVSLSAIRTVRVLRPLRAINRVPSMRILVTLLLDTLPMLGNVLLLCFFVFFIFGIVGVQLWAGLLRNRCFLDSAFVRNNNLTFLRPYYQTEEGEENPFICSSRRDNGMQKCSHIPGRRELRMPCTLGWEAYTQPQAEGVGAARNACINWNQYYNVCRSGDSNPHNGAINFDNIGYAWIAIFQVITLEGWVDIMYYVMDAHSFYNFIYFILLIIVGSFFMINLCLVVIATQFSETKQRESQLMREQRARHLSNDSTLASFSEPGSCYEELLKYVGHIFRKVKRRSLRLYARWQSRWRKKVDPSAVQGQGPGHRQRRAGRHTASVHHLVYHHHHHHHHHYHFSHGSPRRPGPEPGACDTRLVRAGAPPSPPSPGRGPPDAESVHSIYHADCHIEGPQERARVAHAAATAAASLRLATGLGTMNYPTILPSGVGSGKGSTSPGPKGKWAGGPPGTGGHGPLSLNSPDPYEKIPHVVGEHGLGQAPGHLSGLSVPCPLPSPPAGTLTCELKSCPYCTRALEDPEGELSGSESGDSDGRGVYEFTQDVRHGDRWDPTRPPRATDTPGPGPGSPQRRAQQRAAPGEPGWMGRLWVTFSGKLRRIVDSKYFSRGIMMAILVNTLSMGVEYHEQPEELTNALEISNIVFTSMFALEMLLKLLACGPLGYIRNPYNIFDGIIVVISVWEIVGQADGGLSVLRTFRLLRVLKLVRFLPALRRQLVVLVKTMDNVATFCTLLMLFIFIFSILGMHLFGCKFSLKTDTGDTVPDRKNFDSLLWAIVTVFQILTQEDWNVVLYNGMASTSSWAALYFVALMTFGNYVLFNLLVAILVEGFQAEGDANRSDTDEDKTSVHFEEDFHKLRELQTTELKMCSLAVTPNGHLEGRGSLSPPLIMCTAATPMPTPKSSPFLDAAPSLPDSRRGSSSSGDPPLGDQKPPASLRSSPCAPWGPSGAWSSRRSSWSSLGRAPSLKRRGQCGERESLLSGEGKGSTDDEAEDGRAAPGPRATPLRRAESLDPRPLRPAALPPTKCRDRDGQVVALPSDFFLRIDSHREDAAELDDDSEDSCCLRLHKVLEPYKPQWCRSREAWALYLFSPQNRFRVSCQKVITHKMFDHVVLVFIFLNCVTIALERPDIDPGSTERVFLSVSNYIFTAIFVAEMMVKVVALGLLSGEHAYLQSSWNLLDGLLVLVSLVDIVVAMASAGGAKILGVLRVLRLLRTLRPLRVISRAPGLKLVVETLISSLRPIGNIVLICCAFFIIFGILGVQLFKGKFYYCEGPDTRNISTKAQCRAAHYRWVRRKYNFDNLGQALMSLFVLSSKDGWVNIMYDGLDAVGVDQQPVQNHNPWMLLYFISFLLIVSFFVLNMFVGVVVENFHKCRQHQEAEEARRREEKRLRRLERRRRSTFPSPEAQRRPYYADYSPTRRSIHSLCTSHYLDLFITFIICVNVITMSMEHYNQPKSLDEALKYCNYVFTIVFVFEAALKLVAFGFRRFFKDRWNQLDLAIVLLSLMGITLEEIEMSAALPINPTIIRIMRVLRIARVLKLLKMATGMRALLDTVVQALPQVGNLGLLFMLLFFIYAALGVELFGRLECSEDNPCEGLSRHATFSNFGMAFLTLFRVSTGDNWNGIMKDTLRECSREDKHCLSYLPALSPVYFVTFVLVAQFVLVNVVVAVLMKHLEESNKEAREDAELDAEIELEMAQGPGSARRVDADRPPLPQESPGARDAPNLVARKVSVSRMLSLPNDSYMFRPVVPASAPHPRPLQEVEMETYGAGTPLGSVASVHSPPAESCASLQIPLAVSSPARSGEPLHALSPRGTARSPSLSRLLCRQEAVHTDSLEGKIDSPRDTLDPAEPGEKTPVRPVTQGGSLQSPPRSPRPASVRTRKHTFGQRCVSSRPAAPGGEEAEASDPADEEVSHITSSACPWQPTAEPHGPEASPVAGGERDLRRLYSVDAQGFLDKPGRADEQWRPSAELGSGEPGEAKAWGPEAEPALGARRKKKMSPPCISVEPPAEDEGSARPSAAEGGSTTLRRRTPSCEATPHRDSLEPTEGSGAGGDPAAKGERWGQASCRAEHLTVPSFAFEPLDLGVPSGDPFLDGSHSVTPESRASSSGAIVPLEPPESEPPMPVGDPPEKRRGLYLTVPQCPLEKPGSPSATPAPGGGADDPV
Chain of Intestinal-type alkaline phosphatase (Mus musculus, UniProt P24822) (P24822 whole entry): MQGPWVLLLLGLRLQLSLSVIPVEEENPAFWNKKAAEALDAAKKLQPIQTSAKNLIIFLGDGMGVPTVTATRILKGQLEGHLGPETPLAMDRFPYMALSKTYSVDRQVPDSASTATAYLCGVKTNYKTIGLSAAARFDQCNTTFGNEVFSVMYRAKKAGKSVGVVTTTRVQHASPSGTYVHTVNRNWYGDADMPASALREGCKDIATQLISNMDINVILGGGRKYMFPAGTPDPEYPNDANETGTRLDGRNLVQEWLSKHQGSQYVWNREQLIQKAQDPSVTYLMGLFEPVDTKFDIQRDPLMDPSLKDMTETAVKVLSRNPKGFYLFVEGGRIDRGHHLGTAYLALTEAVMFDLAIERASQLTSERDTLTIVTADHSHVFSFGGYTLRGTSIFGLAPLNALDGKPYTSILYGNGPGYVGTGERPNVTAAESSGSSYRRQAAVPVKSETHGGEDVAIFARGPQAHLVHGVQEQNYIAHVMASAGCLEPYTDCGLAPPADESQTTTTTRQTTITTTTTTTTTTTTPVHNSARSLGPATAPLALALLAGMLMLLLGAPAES
Chain of Intestinal-type alkaline phosphatase (Homo sapiens, UniProt P09923) (P09923 whole entry): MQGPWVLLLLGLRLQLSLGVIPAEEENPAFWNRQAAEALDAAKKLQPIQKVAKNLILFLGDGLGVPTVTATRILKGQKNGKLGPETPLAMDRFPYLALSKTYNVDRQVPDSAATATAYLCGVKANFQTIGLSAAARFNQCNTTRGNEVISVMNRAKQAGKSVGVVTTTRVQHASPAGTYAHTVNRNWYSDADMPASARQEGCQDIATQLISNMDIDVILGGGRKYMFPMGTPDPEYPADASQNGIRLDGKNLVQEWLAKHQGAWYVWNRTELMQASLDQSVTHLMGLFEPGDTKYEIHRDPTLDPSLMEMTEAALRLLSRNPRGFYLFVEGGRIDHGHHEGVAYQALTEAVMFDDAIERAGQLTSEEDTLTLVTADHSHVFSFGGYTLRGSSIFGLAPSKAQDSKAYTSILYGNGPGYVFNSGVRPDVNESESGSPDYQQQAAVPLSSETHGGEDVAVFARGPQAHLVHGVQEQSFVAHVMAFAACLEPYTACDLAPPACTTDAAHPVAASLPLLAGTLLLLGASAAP
Chain of Luciferin 4-monooxygenase (P08659 whole entry): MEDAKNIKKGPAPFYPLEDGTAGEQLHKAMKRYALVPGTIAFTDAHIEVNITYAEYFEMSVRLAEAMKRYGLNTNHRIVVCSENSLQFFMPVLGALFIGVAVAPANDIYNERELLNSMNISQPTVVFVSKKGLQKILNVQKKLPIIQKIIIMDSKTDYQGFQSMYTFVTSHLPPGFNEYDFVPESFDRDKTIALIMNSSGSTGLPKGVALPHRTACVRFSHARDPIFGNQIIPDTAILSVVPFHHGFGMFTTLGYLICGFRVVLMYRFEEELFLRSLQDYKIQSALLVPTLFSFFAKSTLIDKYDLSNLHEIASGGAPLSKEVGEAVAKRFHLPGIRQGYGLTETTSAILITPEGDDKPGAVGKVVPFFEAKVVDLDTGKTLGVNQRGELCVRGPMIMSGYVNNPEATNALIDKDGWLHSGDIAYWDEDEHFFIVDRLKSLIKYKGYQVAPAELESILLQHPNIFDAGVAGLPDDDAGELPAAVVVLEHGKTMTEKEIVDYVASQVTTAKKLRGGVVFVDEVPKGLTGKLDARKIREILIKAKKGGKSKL

Take `O=C(COc1ccc(F)cc1Cl)Nc1nnc(-c2ccc3c(c2)OCO3)o1`: in assay [1], the EC50 is 2.1 µM (active).
For `N#Cc1c2c(c(NCc3ccco3)n3c1nc1ccccc13)CCC2`, the IC50 in assay [2] and in assay [3] was > 100 µM (inactive) throughout.
For the compound `CN(C)c1ccc(N=Nc2nc3ccccc3n2C)cc1`, the EC50 in assay [4] was 0.213 µM (active); in assay [7], > 100 µM (inactive); in [8] it was 0.208 µM (active); in [9], 0.429 µM (inconclusive). The IC50 was 27.6 µM (active) in assay [5] and 36.9 µM (active) in assay [6].
